Experimental data: paper doi:10.1101/2025.07.30.667614, “Steric control of signaling bias in the immunometabolic receptor GPR84” (bioRxiv, 2025)

What was measured:
[1] = target: T1, Leu336Ala GPR84 (Homo sapiens, UniProt Q9NQS5, L336A); experiment: pThr263/pThr264 immunoblot of immunoprecipitated GPR84-eYFP; type: cell-based; conditions: 1 μM
T1 construct: expressed in transfected cells
Description: (§1) eYFP-linked receptor constructs were immunoprecipitated from 200 μl cell lysates using GFP-Trap® agarose beads (Proteintech) according to manufacturer’s instructions. Immunocomplexes were washed three times in washing buffer, resuspended in 100 μl 2 × SDS-PAGE sample buffer and incubated at 60 °C for 10 min. Following centrifugation at 2500g for 5 min, 20 μl of immunoprecipitated proteins was resolved by SDS-PAGE on 4% to 12% BisTris gels. After separation, the proteins were transferred electrophoretically onto nitrocellulose membrane, which was then blocked using 5% bovine serum albumin (BSA) in Tris-buffered saline (TBS, 50 mM Tris-Cl, 150 mM NaCl, pH 7.6) for 1 h at room temperature on an orbital shaker. The membrane was then incubated with appropriate primary antibody in 5% BSA in TBS supplemented with 0.1% Tween (TBS-T) overnight at 4 °C. Anti-pThr^263/pThr^264 antiserum was diluted 1:2000 and anti-GFP was diluted 1:10,000. Subsequently, the membrane was washed (3 × 10 min with TBS-T) and incubated for 2 h with anti-rabbit secondary antibody diluted 1:10,000 in 5% BSA in TBS-T. After washing (3 × 10 min with TBS-T), proteins were detected using an Odyssey imaging system (Licor) according to the manufacturer’s instructions.

[2] = target: T2, Phe187Ala GPR84 (Homo sapiens, UniProt Q9NQS5, F187A); experiment: as above; type: cell-based; conditions: 1 μM, compared to OX04954 and OX04539
T2 construct: expressed in transfected cells
T2 sequence (Q9NQS5 whole entry F187A): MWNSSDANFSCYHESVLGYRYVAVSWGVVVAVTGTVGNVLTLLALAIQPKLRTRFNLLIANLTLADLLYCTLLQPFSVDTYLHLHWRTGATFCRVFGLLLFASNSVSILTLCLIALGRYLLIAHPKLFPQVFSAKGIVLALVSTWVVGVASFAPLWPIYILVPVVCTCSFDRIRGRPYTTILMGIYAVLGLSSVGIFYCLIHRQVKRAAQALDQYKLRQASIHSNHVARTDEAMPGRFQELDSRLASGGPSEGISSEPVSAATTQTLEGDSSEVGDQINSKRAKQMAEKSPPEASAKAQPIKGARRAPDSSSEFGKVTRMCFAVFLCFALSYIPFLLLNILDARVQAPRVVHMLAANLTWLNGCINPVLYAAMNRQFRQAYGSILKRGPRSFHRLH
Description: as §1

T1 sequence (Q9NQS5 whole entry L336A): as the sequence (Q9NQS5 whole entry F187A) above, with A187F, L336A counted along it

[O-][n+]1cc(O)cc(CCc2ccc(Cl)c(C(F)(F)F)c2)c1 [OX04529]
phosphorylation of Thr263 and Thr264 (immunoblot) [1]: full agonist | phosphorylation of Thr263 and Thr264 (immunoblot) [2]: partial effect
